Drawing on patent publication US20090054454A1, “BENZOFURANYL- AND BENZOTHIENYL- PIPERAZINYL QUINOLINES AND METHODS OF THEIR USE” (priority 2007, published 2009), this text covers melting point and Ki for 24 molecules.

The target in one series is Human 5-HT Transporter (Homo sapiens, UniProt P31645). Briefly: Inhibition of 3H-5-HT Uptake by Cells Possessing the Human 5-HT Transporter (HC 5HT Transporter), Jar cells. The settings on record: HC-5HTC Transporter Ki (nM), Jar cells treated with staurosporine.
Human 5-HT Transporter, sequence (P31645 whole entry): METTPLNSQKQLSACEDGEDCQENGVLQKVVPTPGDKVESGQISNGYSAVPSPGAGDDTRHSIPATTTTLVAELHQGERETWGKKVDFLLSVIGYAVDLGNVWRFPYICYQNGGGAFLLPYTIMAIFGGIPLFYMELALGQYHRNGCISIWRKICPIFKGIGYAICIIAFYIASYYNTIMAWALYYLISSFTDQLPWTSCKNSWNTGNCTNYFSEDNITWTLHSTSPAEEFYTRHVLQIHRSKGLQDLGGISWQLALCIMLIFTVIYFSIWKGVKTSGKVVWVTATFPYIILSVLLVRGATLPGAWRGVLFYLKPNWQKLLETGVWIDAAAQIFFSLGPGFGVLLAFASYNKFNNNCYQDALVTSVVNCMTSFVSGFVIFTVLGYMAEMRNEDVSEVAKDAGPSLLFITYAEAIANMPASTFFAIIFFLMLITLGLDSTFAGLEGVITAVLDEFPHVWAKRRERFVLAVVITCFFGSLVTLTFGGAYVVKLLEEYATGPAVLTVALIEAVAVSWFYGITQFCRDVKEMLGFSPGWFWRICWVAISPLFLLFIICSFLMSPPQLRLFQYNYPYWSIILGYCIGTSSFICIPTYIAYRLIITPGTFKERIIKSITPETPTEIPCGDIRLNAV

SMILES strings stand for the structures. Where a name gives a salt, the structure may show the parent alone.

Consider `Fc1cc(N2CCN(CCc3coc4ccc(F)cc34)CC2)c2ncccc2c1` (as salt: HCl) [Compound 17, 8-{4-[2-(5-fluoro-1-benzofuran-3-yl)ethyl]-1-piperazinyl}-6-fluoro-quinoline], for which the melting point (as a rule, the temperature of the solid-liquid transition) worked out at 55 °C.

As to `COc1cc(N2CCN(CCc3coc4c(OC)cccc34)CC2)c2ncccc2c1` (as salt: HCl) [Compound 19, 8-{4-[2-(7-methoxy-1-benzofuran-3-yl)ethyl]-1-piperazinyl}-6-methoxy-quinoline], the melting point turned out to be 86 °C.

For `COc1cccc2c(CCN3CCN(c4cc(Cl)cc5cccnc45)CC3)coc12` (as salt: HCl) [Compound 20, 8-{4-[2-(7-methoxy-1-benzofuran-3-yl)ethyl]-1-piperazinyl}-6-chloro-quinoline], the melting point turned out to be 248 °C. Consider `COc1cccc2c(C(C)CN3CCN(c4cccc5cccnc45)CC3)coc12` (centres unmarked) (as salt: HCl) [Compound 31, 8-{4-[2-(7-methoxy-1-benzofuran-3-yl)propyl]-1-piperazinyl}quinoline], for which the melting point worked out at 192 °C. Regarding `COc1cccc2c(C(C)CN3CCN(c4cc(Cl)cc5cccnc45)CC3)coc12` (centres unmarked) (as salt: HCl) [Compound 33, 8-{4-[2-(7-methoxy-1-benzofuran-3-yl)propyl]-1-piperazinyl}-6-chloro-quinoline], the melting point lay within 55 to 58 °C. Molecule `COc1ccc2occ(CCN3CCN(c4cccc5cccnc45)CC3)c2c1` [Compound 21, 8-{4-[2-(5-methoxy-1-benzofuran-3-yl)ethyl]-1-piperazinyl}-quinoline] registered a melting point of 78 °C. For the same molecule, at Human 5-HT Transporter, the Ki (as a rule, the equilibrium dissociation constant of an inhibitor or competing ligand from its target) was found to be 43.6 nM. The matching figures for `COc1ccc2occ(CCN3CCN(c4cc(Cl)cc5cccnc45)CC3)c2c1` [Compound 22, 8-{4-[2-(5-methoxy-1-benzofuran-3-yl)ethyl]-1-piperazinyl}-6-chloro-quinoline]: 72 °C and 106 nM.

With `Clc1cc(N2CCN([C@H]3CC[C@@H](c4csc5ccccc54)CC3)CC2)c2ncccc2c1` [Compound 41, 8-{4-[4-cis-(1-benzothien-3-yl)cyclohexyl]-1-piperazinyl}-6-chloroquinoline], the melting point lay in the range of 164 to 165 °C. Besides, at Human 5-HT Transporter, the Ki came to 338 nM. On to `Clc1cc(N2CCN([C@H]3CC[C@H](c4csc5ccccc54)CC3)CC2)c2ncccc2c1` [Compound 42, 8-{4-[4-trans(1-benzothien-3-yl)cyclohexyl]-1-piperazinyl}-6-chloroquinoline], for which the melting point fell in the range of 143 to 144 °C. Moreover, the inhibitory constant (Ki) at Human 5-HT Transporter was 184 nM. For the molecule `Fc1cc(N2CCN([C@H]3CC[C@@H](c4csc5ccccc54)CC3)CC2)c2ncccc2c1` [Compound 43, 8-{4-[4-cis(1-benzothien-3-yl)cyclohexyl]-1-piperazinyl}-6-fluoroquinoline], the melting point was in the range of 147 to 151 °C. In addition, affinity at Human 5-HT Transporter was put at a Ki of 1440 nM.

With `Fc1cc(N2CCN([C@H]3CC[C@H](c4csc5ccccc54)CC3)CC2)c2ncccc2c1` [Compound 44, 8-{4-[4-trans(1-benzothien-3-yl)cyclohexyl]-1-piperazinyl}-6-fluoroquinoline], the melting point was determined as 195 °C. On Human 5-HT Transporter, this molecule gave a Ki of 1620 nM. With `COc1cc(N2CCN([C@H]3CC[C@@H](c4csc5ccccc54)CC3)CC2)c2ncccc2c1` [Compound 45, 8-{4-[4-cis(1-benzothien-3-yl)cyclohexyl]-1-piperazinyl}-6-methoxyquinoline], the melting point was 148 to 150 °C. At Human 5-HT Transporter, this molecule returned a Ki of 1080 nM.

For the molecule `COc1cc(N2CCN([C@H]3CC[C@H](c4csc5ccccc54)CC3)CC2)c2ncccc2c1` [Compound 46, 8-{4-[4-trans (1-benzothien-3-yl)cyclohexyl]-1-piperazinyl}-6-methoxyquinoline], the melting point lay in the range of 166 to 168 °C. At Human 5-HT Transporter, this molecule displayed a Ki of 802 nM. The matching figures for `Fc1cc(N2CCN([C@H]3CC[C@H](c4csc5ccc(F)cc54)CC3)CC2)c2ncccc2c1` [Compound 48, 6-fluoro-8-{4-[4-trans(5-fluoro-1-benzothien-3-yl)cyclohexyl]piperazin-1-yl}quinoline]: 143 to 144 °C and 739 nM.

With `Fc1ccc2scc([C@H]3CC[C@@H](N4CCN(c5ccc(Cl)c6cccnc56)CC4)CC3)c2c1` [Compound 51, 5-chloro-8-{4-[4-cis(5-fluoro-1-benzothien-3-yl)cyclohexyl]piperazin-1-yl}quinoline], the melting point was 192 to 197 °C. This molecule came in with a Ki at Human 5-HT Transporter of 1150 nM. The matching figures for `Fc1ccc(N2CCN([C@H]3CC[C@@H](c4coc5ccccc54)CC3)CC2)c2ncccc12` [Compound 53, 8-{4-[4-cis(1-benzofuran-3-yl)cyclohexyl]-1-piperazinyl}-5-fluoroquinoline]: 142 to 144 °C and 3910 nM. In the case of `Fc1ccc(N2CCN([C@H]3CC[C@H](c4coc5ccccc54)CC3)CC2)c2ncccc12` [Compound 54, 8-{4-[4-trans(1-benzofuran-3-yl)cyclohexyl]-1-piperazinyl}-5-fluoroquinoline], the melting point was 162 to 164 °C. This molecule also registered a Ki at Human 5-HT Transporter of 220 nM. The matching figures for `Fc1cc(N2CCN([C@H]3CC[C@H](c4coc5ccccc54)CC3)CC2)c2ncccc2c1` [Compound 56, 8-{4-[4-trans(1-benzofuran-3-yl)cyclohexyl]-1-piperazinyl}-6-fluoroquinoline]: 195 to 197 °C and 337 nM. The matching figures for `COc1cccc2c1occ2[C@H]1CC[C@@H](N2CCN(c3ccc(F)c4cccnc34)CC2)CC1` [Compound 57, 5-fluoro-8-{4-[4-cis(7-methoxy-1-benzofuran-3-yl)cyclohexyl]-1-piperazinyl}quinoline]: 143 to 146 °C and 3040 nM. For the molecule `COc1cccc2c1occ2[C@H]1CC[C@@H](N2CCN(c3cc(F)cc4cccnc34)CC2)CC1` [Compound 59, 6-fluoro-8-{4-[4-cis(7-methoxy-1-benzofuran-3-yl)cyclohexyl]-1-piperazinyl}quinoline], the melting point is 75 to 83 °C. Moreover, the affinity on Human 5-HT Transporter corresponds to a Ki of 455 nM. The matching figures for `COc1cccc2c1occ2[C@H]1CC[C@H](N2CCN(c3cc(F)cc4cccnc34)CC2)CC1` [Compound 60, 6-fluoro-8-{4-[4-trans(7-methoxy-1-benzofuran-3-yl)cyclohexyl]-1-piperazinyl}quinoline]: 195 to 197 °C and 212 nM. The matching figures for `COc1cccc2c1occ2[C@H]1CC[C@@H](N2CCN(c3cccc4cccnc34)CC2)CC1` [Compound 61, 8-{4-[4-cis(7-methoxy-1-benzofuran-3-yl)cyclohexyl]-1-piperazinyl}quinoline]: 66 to 67 °C and 96.8 nM.

In turn, `Fc1cc(N2CCN(C3CCC(c4cc5ccccc5o4)CC3)CC2)c2ncccc2c1` (centres unmarked) [Compound 69, 8-[4-(4-benzofuran-2-yl-yclohexyl)-piperazin-1-yl]-6-fluoro-quinoline] had a melting point of 91 to 93 °C.

As to `COc1cc(N2CCN([C@H]3CC[C@H](c4cc5ccccc5s4)CC3)CC2)c2ncccc2c1` [Compound 71], the melting point was 193 to 194 °C.
